Structures can show the parent of a compound that is named as a salt.
How the values were obtained:
[1] = system: cells expressing a MPRIP-NTRK1 fusion protein including Trk inhibitor resistance mutations; assay: Proliferation (percent of control) of cells expressing mutant MPRIP-NTRK1 fusion; assay type: cell-based; details: TrkA substitutions V573M, F589L, G667S
Method: In the genetic screen cDNAs harboring the MPRIP-NTRK1 oncogene were introduced into Ba/F3 cells. The Ba/F3 cells were treated with the mutagen, 100 μg/mL N-ethyl-N-nitrosourea (ENU; Sigma Aldrich, St. Louis, Mo.), overnight. […] At confluence, the cells were collected and genomic DNA was extracted. The NTRK1 kinase region was amplified and the PCR products were purified and sequenced. A plasmids encoding MPRIP-NTRK1 mutations were generated with QuickChange site-directed mutagenesis according to the manufacturer's instructions using a sequence encoding a wildtype MPRIP-NTRK1 fusion protein as a template. Each mutation was confirmed by DNA sequencing. The Ba/F3 cells and NIH353 cells expressing MPRIP-NTRK1 mutants were generated by infecting Ba/F3 and NIH353 parental cells with lentivirus encoding the mutation MPRIP-NTRK1 fusion proteins, followed by selection with puromycin.

[2] = system: TRKB and ERK1/2 activation in NIH3T3 cells expressing TRIM24-NTRK2 fusions; assay: Western blot analysis of NIH3T3 cells expressing TRIM24-NTRK2 fusions; assay type: cell-based; details: 2 hours
Method: FIG. 11 is a photograph of a Western blot analysis of NIH3T3 cells treated with the indicated concentrations of (S)—N-(5-((R)-2-(2,5-difluorophenyl)pyrrolidin-1-yl)pyrazolo[1,5-a]pyrimidin-3-yl)-3-hydroxypyrrolidine-1-c[…] (Cmpd A) for 2 hours.
Ba/F3 cells stably expressing MPRIP-NTRK1 or TRIM24-NTRK2 were treated overnight with […] N-Ethyl-N-nitrosourea (ENU), pelleted, resuspended in fresh media, and distributed in 96-well plates in 200 μL media supplemented with (S)—N-(5-((R)-2-(2,5-DIFLUOROPHENYL)PYRROLIDIN-1-YL)PYRAZOLO[1,5-A]PYRIMIDIN-3-YL)-3-HYDROXYPYRROLIDINE-1-C[…] (100, 250, and 500 nM). […] The contents of outgrown wells were expanded in 12-well plates in media supplemented with (S)—N-(5-((R)-2-(2,5-DIFLUOROPHENYL)PYRROLIDIN-1-YL)PYRAZOLO[1,5-A]PYRIMIDIN-3-YL)-3-HYDROXYPYRROLIDINE-1-C[…] at the same concentration as in the initial 96-well plate. At confluence, cells were collected and genomic DNA was extracted. The NTRK1 and NTRK2 kinase region was PCR-amplified and sequenced. Plasmids encoding MPRIP-NTRK1 and TRIM24-NTRK2 mutations were generated with QuickChange site-directed mutagenesis and confirmed by DNA sequencing. Ba/F3 cells and NIH3T3 cells expressing MPRIP-NTRK1 mutants were generated by infecting Ba/F3 and NIH3T3 parental cells with lentivirus encoding MPRIP-NTRK1 mutation followed by selection with puromycin.

[3] = system: TRKA and ERK1/2 activation in NIH3T3 cells expressing MPRIP-NTRK1 fusions; assay: Western blot analysis of NIH3T3 cells expressing MPRIP-NTRK1 fusions; assay type: cell-based; details: 2 hours
[4] = system: cells expressing a TRIM24-NTRK2 fusion protein including TrkB inhibitor resistance mutations; assay: Proliferation (percent of control) of cells expressing mutant TRIM24-NTRK2 fusion; assay type: cell-based; details: Example 3; TrkB substitutions V601G, G623S, R630K
Method: N-ethyl-N-nitrosourea (ENU)-exposed Ba/F3-MPRIP-NTRK1 and Ba/F3-TRIM24-NTRK2 cells were used to generate mutations permitting growth of Ba/F3 cells in the absence of IL-3 despite the presence of 100, 250, or 500 nM (S)—N-(5-((R)-2-(2,5-difluorophenyl)pyrrolidin-1-yl)pyrazolo[1,5-a]pyrimidin-3-yl)-3-hydroxypyrrolidine-1-c[…]. The Mutations identified by genomic DNA sequencing in the initial screen were validated by cloning the mutation-bearing cDNAs back into Ba/F3 cells to evaluate their sensitivity to (S)—N-(5-((R)-2-(2,5-DIFLUOROPHENYL)PYRROLIDIN-1-YL)PYRAZOLO[1,5-A]PYRIMIDIN-3-YL)-3-HYDROXYPYRROLIDINE-1-C[…] using both proliferation assays and TRK phosphorylation by immunoblot analyses. Modeling of the mutations was performed by mapping of the amino acid substitutions onto a drug-bound TRK kinase domain crystal structure.
Ba/F3 cells stably expressing MPRIP-NTRK1 or TRIM24-NTRK2 were treated overnight with […] N-Ethyl-N-nitrosourea (ENU), pelleted, resuspended in fresh media, and distributed in 96-well plates in 200 μL media supplemented with (S)—N-(5-((R)-2-(2,5-DIFLUOROPHENYL)PYRROLIDIN-1-YL)PYRAZOLO[1,5-A]PYRIMIDIN-3-YL)-3-HYDROXYPYRROLIDINE-1-C[…] (100, 250, and 500 nM). […]

[5] = molecular target: TrkC WT (Homo sapiens, UniProt Q16288, S70N); assay: Trk enzyme assay ([33P] incorporation into poly-EAY); assay type: biochemical; details: wild-type TrkC enzyme; 22° C., 60 minutes
Sequence of TrkC WT (Q16288 32-839 S70N): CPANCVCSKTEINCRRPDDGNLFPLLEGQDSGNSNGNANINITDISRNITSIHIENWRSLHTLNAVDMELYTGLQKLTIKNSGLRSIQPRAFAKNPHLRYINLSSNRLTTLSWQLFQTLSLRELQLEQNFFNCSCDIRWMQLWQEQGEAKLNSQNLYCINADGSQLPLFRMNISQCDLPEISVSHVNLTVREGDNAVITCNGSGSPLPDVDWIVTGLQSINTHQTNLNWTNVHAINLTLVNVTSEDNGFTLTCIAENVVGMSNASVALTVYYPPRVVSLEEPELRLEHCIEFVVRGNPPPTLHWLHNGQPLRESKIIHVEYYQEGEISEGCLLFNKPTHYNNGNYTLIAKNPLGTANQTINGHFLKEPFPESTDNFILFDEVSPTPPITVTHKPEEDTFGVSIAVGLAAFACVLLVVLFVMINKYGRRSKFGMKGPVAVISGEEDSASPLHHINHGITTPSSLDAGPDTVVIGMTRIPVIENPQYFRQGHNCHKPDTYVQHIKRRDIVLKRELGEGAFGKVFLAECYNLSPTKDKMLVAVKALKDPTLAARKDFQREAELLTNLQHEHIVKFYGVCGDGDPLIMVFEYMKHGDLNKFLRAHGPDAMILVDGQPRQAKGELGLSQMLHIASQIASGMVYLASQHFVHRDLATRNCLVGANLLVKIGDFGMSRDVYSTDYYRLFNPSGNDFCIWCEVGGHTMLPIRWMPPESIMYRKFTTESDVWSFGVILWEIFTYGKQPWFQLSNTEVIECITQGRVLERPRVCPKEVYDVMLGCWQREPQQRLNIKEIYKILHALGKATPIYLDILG
Method: (§1) The assays were conducted in 96-well polypropylene v-bottom microtitre plates (Corning, Costar® 3363) in a total volume of 50 μL. […] The radiolabeled product was then captured on glass fiber filter plates (PerkinElmer, Unifilter®-96, GF/B®) and washed with 5% phosphoric acid to remove unbound radiolabel using a Tomtec MACH III Harvester 96®. After adding 35 μL/well of Bio-Safe II™ liquid scintillation cocktail (Research Products International), the plates were counted in a TopCount NXT (PerkinElmer) using a counting time of 30 s/well. The activity at each concentration of compound was expressed as percent of control (POC) and plotted versus compound concentration.

[6] = molecular target: TrkA F589L (Homo sapiens, UniProt P04629, F589L); assay: as above; assay type: biochemical; details: mutant TrkA F589L enzyme; 22° C., 60 minutes
Sequence of TrkA F589L (P04629 33-796 F589L): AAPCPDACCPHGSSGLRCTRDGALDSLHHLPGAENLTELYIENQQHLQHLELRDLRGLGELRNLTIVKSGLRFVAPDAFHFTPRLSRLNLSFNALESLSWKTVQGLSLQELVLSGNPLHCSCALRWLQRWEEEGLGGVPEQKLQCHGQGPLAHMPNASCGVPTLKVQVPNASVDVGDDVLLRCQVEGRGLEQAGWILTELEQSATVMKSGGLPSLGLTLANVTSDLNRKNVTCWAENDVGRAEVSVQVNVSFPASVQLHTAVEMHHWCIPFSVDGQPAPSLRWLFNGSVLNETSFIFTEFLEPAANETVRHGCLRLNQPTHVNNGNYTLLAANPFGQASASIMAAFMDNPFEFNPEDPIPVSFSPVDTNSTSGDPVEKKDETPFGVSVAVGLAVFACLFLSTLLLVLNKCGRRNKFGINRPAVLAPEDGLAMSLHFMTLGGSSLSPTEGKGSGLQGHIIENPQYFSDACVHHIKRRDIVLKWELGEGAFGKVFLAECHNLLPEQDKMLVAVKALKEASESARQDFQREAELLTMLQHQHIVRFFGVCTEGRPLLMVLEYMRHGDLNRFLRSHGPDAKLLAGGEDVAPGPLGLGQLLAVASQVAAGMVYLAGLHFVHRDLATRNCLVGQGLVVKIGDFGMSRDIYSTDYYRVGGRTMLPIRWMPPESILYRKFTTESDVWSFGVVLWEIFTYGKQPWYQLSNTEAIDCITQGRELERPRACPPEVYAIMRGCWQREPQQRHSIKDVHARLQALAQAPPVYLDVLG
Method: (§2) The activity of the various Trk compounds exemplified in Table 6 was determined by monitoring the incorporation of [^33P]PO4 from [γ-^33P]ATP into poly-EAY (Sigma-Aldrich, P3899).
as §1

[7] = molecular target: TrkA G667S (Homo sapiens, UniProt P04629, G667S); assay: as above; assay type: biochemical; details: mutant TrkA G667S enzyme; 22° C., 60 minutes
Sequence of TrkA G667S (P04629 33-796 G667S): as the sequence (P04629 33-796 F589L) above, with L557F, G635S counted along it
Method: as §2, §1

[8] = molecular target: TrkB G623R (Homo sapiens, UniProt Q16620, G623R); assay: as above; assay type: biochemical; details: mutant TrkB G623R enzyme; 22° C., 60 minutes
Sequence of TrkB G623R (Q16620 32-822 G623R): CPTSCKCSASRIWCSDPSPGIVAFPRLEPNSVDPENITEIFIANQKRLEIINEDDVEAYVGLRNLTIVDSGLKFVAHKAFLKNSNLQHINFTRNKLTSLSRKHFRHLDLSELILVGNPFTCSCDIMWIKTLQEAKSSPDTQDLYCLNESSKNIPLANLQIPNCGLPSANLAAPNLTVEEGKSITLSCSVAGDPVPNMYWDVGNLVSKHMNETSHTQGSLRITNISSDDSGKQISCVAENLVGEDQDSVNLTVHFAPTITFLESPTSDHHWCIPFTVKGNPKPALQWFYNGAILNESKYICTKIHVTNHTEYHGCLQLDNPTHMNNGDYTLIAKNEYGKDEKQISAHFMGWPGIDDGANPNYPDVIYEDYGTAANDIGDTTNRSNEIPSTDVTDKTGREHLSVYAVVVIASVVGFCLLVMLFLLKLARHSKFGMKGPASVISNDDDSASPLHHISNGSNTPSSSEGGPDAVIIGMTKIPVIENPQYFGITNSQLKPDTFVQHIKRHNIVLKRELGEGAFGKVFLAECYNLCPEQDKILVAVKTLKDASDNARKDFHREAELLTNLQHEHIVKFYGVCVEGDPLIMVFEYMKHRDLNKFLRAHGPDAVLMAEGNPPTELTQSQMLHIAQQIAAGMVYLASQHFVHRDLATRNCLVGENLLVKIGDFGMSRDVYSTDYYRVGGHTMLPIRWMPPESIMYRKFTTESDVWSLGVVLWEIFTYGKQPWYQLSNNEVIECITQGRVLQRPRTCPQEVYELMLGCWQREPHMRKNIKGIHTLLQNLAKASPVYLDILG
Method: as §1

[9] = molecular target: TrkC F617L (Homo sapiens, UniProt Q16288, F617L/S70N); assay: as above; assay type: biochemical; details: mutant TrkC F617L enzyme; 22° C., 60 minutes
Sequence of TrkC F617L (Q16288 32-839 S70N/F617L): as the sequence (Q16288 32-839 S70N) above, with F586L counted along it
Method: as §1

[10] = molecular target: TrkA G667C (Homo sapiens, UniProt P04629, G667C); assay: as above; assay type: biochemical; details: mutant TrkA G667C enzyme; 22° C., 60 minutes
Sequence of TrkA G667C (P04629 33-796 G667C): as the sequence (P04629 33-796 F589L) above, with L557F, G635C counted along it
Method: as §2, §1

[11] = molecular target: TrkA G595R (Homo sapiens, UniProt P04629, G595R); assay: as above; assay type: biochemical; details: mutant TrkA G595R enzyme; 22° C., 60 minutes
Sequence of TrkA G595R (P04629 33-796 G595R): as the sequence (P04629 33-796 F589L) above, with L557F, G563R counted along it
Method: as §2, §1

[12] = molecular target: TrkB WT (Homo sapiens, UniProt Q16620); assay: as above; assay type: biochemical; details: wild-type TrkB enzyme; 22° C., 60 minutes
Sequence of TrkB WT (Q16620 32-822): as the sequence (Q16620 32-822 G623R) above, with R592G counted along it
Method: as §1

[13] = molecular target: TrkA V573M (Homo sapiens, UniProt P04629, V573M); assay: as above; assay type: biochemical; details: mutant TrkA V573M enzyme; 22° C., 60 minutes
Sequence of TrkA V573M (P04629 33-796 V573M): as the sequence (P04629 33-796 F589L) above, with V541M, L557F counted along it
Method: as §2, §1

[14] = molecular target: TrkC G623R (Homo sapiens, UniProt Q16288, G623R/S70N); assay: as above; assay type: biochemical; details: mutant TrkC G623R enzyme; 22° C., 60 minutes
Sequence of TrkC G623R (Q16288 32-839 S70N/G623R): as the sequence (Q16288 32-839 S70N) above, with G592R counted along it
Method: The radiolabeled product was then captured on glass fiber filter plates (PerkinElmer, Unifilter®-96, GF/B®) and washed with 5% phosphoric acid to remove unbound radiolabel using a Tomtec MACH III Harvester 96®. After adding 35 μL/well of Bio-Safe II™ liquid scintillation cocktail (Research Products International), the plates were counted in a TopCount NXT (PerkinElmer) using a counting time of 30 s/well. The activity at each concentration of compound was expressed as percent of control (POC) and plotted versus compound concentration.

[15] = molecular target: TrkA WT (Homo sapiens, UniProt P04629); assay: as above; assay type: biochemical; details: wild-type TrkA enzyme; 22° C., 60 minutes
Sequence of TrkA WT (P04629 33-796): as the sequence (P04629 33-796 F589L) above, with L557F counted along it
Method: as §1

O=C(Nc1cnn2ccc(N3CCC[C@@H]3c3cc(F)ccc3F)nc12)N1CC[C@H](O)C1 [(S)—N-(5-((R)-2-(2,5-difluorophenyl)pyrrolidin-1-yl)pyrazolo[1,5-a]pyrimidin-3-yl)-3-hydroxypyrrolidine-1-carboxamide sulfate]
resistance of cancer cells having a MPRIP-NTRK1 point mutation (POC, FIG. 4) ([1]; Example 1, F600L, Y676S): increased resistance
resistance of cancer cells having a MPRIP-NTRK1 point mutation (percent of control, FIG. 7) ([1]; Example 3): increased resistance
TRKB and ERK1/2 activation, sensitivity to inhibition (FIG. 11) ([2]; NIH3T3 cells expressing TRIM24-NTRK2 V601G, G623S or R630K fusions): resistant
TRKB and ERK1/2 activation, sensitivity to inhibition (FIG. 11) ([2]; NIH3T3 cells expressing TRIM24-NTRK2 WT fusion): sensitive
TRKA and ERK1/2 activation, sensitivity to inhibition (FIG. 8) ([3]; NIH3T3 cells expressing MPRIP-NTRK1 V573M, F589L or G667S fusions): resistant
TRKA and ERK1/2 activation, sensitivity to inhibition (FIG. 8) ([3]; NIH3T3 cells expressing MPRIP-NTRK1 WT fusion): sensitive
resistance of cancer cells having a TRIM24-NTRK2 point mutation (percent of control, FIG. 10) [4]: increased resistance

O=C1NCCCOc2cccc(n2)[C@H]2CCCN2c2ccn3ncc1c3n2 [Compound 20, (6R)-12-oxa-2,16,20,21,24,26-hexaazapentacyclo[16.5.2.^17,11.0^2,6.0^21,25]-hexacosa-1(24),7(26),8,10,18(25),19,22-heptaen-17-one]
IC50 [5]: < 2.5 nM
IC50 [6]: 48.3 nM
IC50 [7]: 3.2 nM
IC50 [8]: 3.1 nM
IC50 [9]: 18.3 nM
IC50 [10]: 13.3 nM
IC50 [11]: 2.7 nM
IC50 [12]: 3.1 nM
IC50 [13]: 36.5 nM
IC50 [14]: 3.1 nM
IC50 [15]: < 0.5 nM

CC(=O)N1CCOc2ccc(F)cc2[C@H]2CCCN2c2ccn3ncc(c3n2)C1 [Compound 21, 1-[(6R)-9-fluoro-13-oxa-2,16,20,21,24-pentaazapentacyclo[16.5.2.0^2,6.0^7,12.0^21,25]pentacosa-1(24),7,9,11,18(25),19,22-heptaen-16-yl]ethan-1-one]
IC50 [5]: < 2.5 nM
IC50 [6]: 66.3 nM
IC50 [7]: 8.4 nM
IC50 [8]: 12.4 nM
IC50 [9]: 48.5 nM
IC50 [10]: 22.2 nM
IC50 [11]: 7.3 nM
IC50 [12]: 5.6 nM
IC50 [13]: 29.1 nM
IC50 [14]: 7.8 nM
IC50 [15]: 0.6 nM

O=C1OCCOc2ncc(F)cc2[C@H]2CCCN2c2ccn3ncc1c3n2 [Compound 22, (6R)-9-fluoro-13,16-dioxa-2,11,20,21,24-pentaazapentacyclo[16.5.2.0^2,6.0^7,12.0^21,25]-pentacosa-1(24),7,9,11,18(25),19,22-heptaen-17-one]
IC50 [5]: < 2.5 nM
IC50 [6]: 8.4 nM
IC50 [7]: 0.9 nM
IC50 [8]: 1.3 nM
IC50 [9]: 5.4 nM
IC50 [10]: 5.7 nM
IC50 [11]: 1.5 nM
IC50 [12]: 2.9 nM
IC50 [13]: < 5 nM
IC50 [14]: 1.5 nM
IC50 [15]: 0.5 nM

O=C1NCC(F)(F)COc2ncc(F)cc2[C@H]2CCCN2c2ccn3ncc1c3n2 [Compound 23, (6R)-9,15,15-trifluoro-13-oxa-2,11,17,21, 22,25-hexaazapentacyclo [17.5.2.0^2,6.0^7,12.0^22,26]hexacosa-1(25),7,9, 11,19(26),20,23-heptaen-18-one]
IC50 [5]: 2.7 nM
IC50 [6]: < 1 nM
IC50 [7]: 0.3 nM
IC50 [8]: 1.1 nM
IC50 [9]: 5.8 nM
IC50 [10]: 0.8 nM
IC50 [11]: 1.6 nM
IC50 [12]: 6.1 nM
IC50 [13]: < 5 nM
IC50 [14]: 2.1 nM
IC50 [15]: 0.7 nM

C[C@H]1CNC(=O)c2cnn3ccc(nc23)N2CCC[C@@H]2c2cc(F)cn(c2=O)C1 [Compound 24, (6R,13S)-9-fluoro-13-methyl-2,11,15, 19,20,23-hexaazapentacyclo [15.5.2.^17,11.0^2,6.0^20,24]pentacosa-1(23),7,9,17(24),18,21-hexaene-16,25-dione]
IC50 [5]: < 2.5 nM
IC50 [6]: 86.8 nM
IC50 [7]: 4.7 nM
IC50 [8]: 4.2 nM
IC50 [9]: 61.9 nM
IC50 [10]: 22.3 nM
IC50 [11]: 3.3 nM
IC50 [12]: 4.7 nM
IC50 [13]: 38.3 nM
IC50 [14]: 4.5 nM
IC50 [15]: 0.5 nM

CC1(C)CNC(=O)c2cnn3ccc(nc23)N2CCC[C@@H]2c2cc(F)cnc2OC1 [Compound 25, (6R)-9-fluoro-15,15-dimethyl-13-oxa-2,11,17,21,22,25-hexaazapentacyclo [17,5.2.0^2,6.0^7,12.0^22,26]hexacosa-1(25),7,9,11,19(26),20,23-heptaen-18-one]
IC50 [5]: 4 nM
IC50 [6]: 1.1 nM
IC50 [7]: 0.5 nM
IC50 [8]: 2.3 nM
IC50 [9]: 8.1 nM
IC50 [10]: 1 nM
IC50 [11]: 3 nM
IC50 [12]: 8.7 nM
IC50 [13]: < 5 nM
IC50 [14]: 4.7 nM
IC50 [15]: 1 nM

O=C1NC[C@H](O)COc2ccc(F)cc2[C@H]2CC(F)(F)CN2c2ccn3ncc1c3n2 [Compound 26, (15S)-4,4,9-trifluoro-15-hydroxy-13-oxa-2,17,21,22.25-pentaazapentacyclo [17.5.2.0^2,6.0^7,12.0^22,26]hexacosa-1(25),7(12),8,10,19(26),20,23-heptaen-18-one]
IC50 [5]: < 2.5 nM
IC50 [6]: 3.9 nM
IC50 [7]: 0.5 nM
IC50 [8]: 1.8 nM
IC50 [9]: 9.6 nM
IC50 [10]: 1 nM
IC50 [11]: 2.1 nM
IC50 [12]: 3.3 nM
IC50 [13]: < 5 nM
IC50 [14]: 2.6 nM
IC50 [15]: 0.6 nM

Reference: patent US10370727B2, “Point mutations in TRK inhibitor-resistant cancer and methods relating to the same” (Loxo Oncology, Inc., priority 2015, dated 2019)
